How the values were obtained:
[1] = system: HUES9-derived population (Pdx1+ cells); assay: High throughput screen for compounds increasing Pdx1+ cells; type: cell-based, human
Experimental: To generate a starting population, HUES cells were cultured on MEF feeder cells until 80-90% confluent, then treated with 25 ng/ml Wnt3a (R&D systems)+100 ng/ml Activin A (R&D systems) in advanced RPMI (A-RPMI, Invitrogen) supplemented with 1×L-Glu and 1×PS for 1 day, and then 100 ng/ml Activin A in A-RPMI supplemented with 1×L-Glu, 1×PS and 0.2% FBS (Invitrogen). Two days later, the media was changed to 50 ng/ml FGF10 (R&D systems)+0.25 μM KAAD-CYC (Calbiochem) in A-RPMI supplemented with 1×L-Glu, 1×PS and 2% FBS and maintained for additional 2 days. Cells were then transferred to 50 ng/ml FGF10+0.25 μM KAAD-CYC+2 μM RA (Sigma) in DMEM supplemented with 1×L-Glu, 1×PS, 1×B27 (Invitrogen) and cultured for an additional 4 days. ILV was obtained from Axxora, KAAD-CYC, TPB, PMA, BISI, Gö 6983, U0126 and PD98059 were obtained from Calbiochem and RA were obtained from Sigma.
For a high throughput screen, the starting material was hESCs (HUES9 cells) that were induced to pancreatic lineage using a slightly modified version of previously published protocols (D'Amour et al., 2006; Jiang et al., 2007), as described in Example 1. After 9 days of stepwise differentiation, a heterogeneous population of cells was generated containing cells that stained strongly, weakly or not at all with a Pdx1 antibody. Any cell that stained with the Pdx1 staining antibody was counted as Pdx1^+ cells regardless of staining intensity. Together, the Pdx1^+ cells comprises 5.1±1.8% of the total cell number.
To carry out the screen, the cells were trypsinized and plated on 804G-coated 384-well plates at 6000 cells/well using chemically defined media (DMEM supplemented with 2 mM L-Glu, 1×PS, 1×B27). After overnight incubation, compounds were screened by adding them to provide a final concentration of 10 μM, 1 μM and 0.1 μM. Four days later, the cells were stained with Pdx1 antibody and the plates were analyzed with Opera high content screening system (PerkinElmer).
The wells in which the percentage of Pdx1^+ cells is higher than present at day 1 and higher than day 5 treated with DMSO were selected as primary hits. Compounds that increase both the number and percentage of Pdx1^+ cells were picked as primary hits. Eleven compounds produced hits. (FIG. 7, Table I in FIG. 9 and formulas in FIG. 10). These eleven compounds were (−)-Indolactam V (FIG. 1c and Compound I in Table 1) boldine (Compound II), rotenone (Compound III), ethopropazine hydrochloride (Compound IV), cedrelone (Compound V), prieurianin (Compound VI), strophanthidin (Compound VII), trimeprazine tartrate (Compound VIII), terconazole (Compound IX), dimethisoquin hydrochloride (Compound X), harmine hydrochloride (Compound XI).
(§1) Cells were fixed with 10% formalin solution (Sigma) for 20 min at room temperature. Immunostaining was carried out with standard protocols. The following primary antibodies were used: goat anti-Pdx1 (1:500; R&D system); rabbit anti-FOXA2 (1:500; Upstate); rabbit anti-HNF6 (1:200; Santa Cruz Biotech); guinea pig anti-insulin (1:1000; Dako); rabbit anti-c-peptide (1:500; Linco); rabbit anti-amylase (1:200, Sigma); goat anti-HNF1β (1:100, Santa Cruz Biotech); and biotinylated DBA (1:400; Vector Lab). Alexa-488-, Alexa-555, and Alexa-647-conjugated donkey antibodies against mouse, rabbit, guinea pig and goat, and Pacific Blue conjugate-streptavidin (Invitrogen) were used at 1:300 dilution.

[2] = system: protein kinase C (PKC) signaling; conditions: some cell lines; Heikkila and Akerman, 1989; Hirota et al., 1987; cited from earlier work
[3] = system: ERK1/2 phosphorylation at Thr-202/Tyr-204; assay: Western blot of ERK1/2 phosphorylation; type: cell-based, human; conditions: 300 nM ILV, 1 hour, compared to DMSO-treated control
Experimental: Cells were lysed in 1×RIPA lysis buffer (Upstate Biotechnology) with 1% protease inhibitor mixture (Sigma)/1% phosphatase inhibitor mixture (Sigma)/1% phosphatase inhibitor mixture II (Sigma). Proteins were separated by 4-20% Tris-Glycine SDS/PAGE (Biorad) under denaturing conditions and transferred to a nitrocellulose membrane. After blocking with 5% nonfat milk in DPBS, the membrane was incubated with primary antibodies against phospho-ERK1/2 (Thr-202/Tyr-204) (1:2,000, Sigma) and ERK1/2 (1:1,000, Cell Signaling) overnight at 4° C. The membrane was then washed, incubated with anti-mouse/rabbit peroxidase-conjugated affinity-purified secondary antibody (1:1000, Cell Signaling) at room temperature for 1 hour, and developed by SuperSignal chemiluminescence (Pierce).
Experiments were performed to monitor downstream signaling by PKC. Since ERK signaling has been reported to be regulated by PKC (Ueda et al., 1996), the activity of ERK signaling was examined with Western blotting to detect the phosphorylation of ERK1/2 at Thr-202/Tyr-204. After 1 hour treatment with 300 nM ILV, the phosphorylation of ERK1/2 increased compared to the DMSO-treated control (FIG. 8a). In addition, MEK/ERK inhibitors, PD098059 or U0126, both block ILV's effect. […]

HUES8-derived population = assay: Pancreatic lineage markers in ILV-treated population (immunocytochemistry, qRT-PCR); type: cell-based, human
Experimental: Total RNAs were extracted with the RNeasy Mini Kit (Qiagen) and reverse-transcribed using SuperScript III RT-PCR system (Invitrogen) according to the manufacturer's protocol. One microliter of cDNA sample was PCR amplified with QuantiFast SYBR Green PCR Kit (Qiagen) and analyzed with DNA engine Opticon2 (MJ Research).
as §1
To further characterize the cells induced by ILV, beyond Pdx1^+ expression, multiple pancreatic lineage markers were examined by immunocytochemistry and qRT-PCR. More than 96% of the Pdx1^+ cells following ILV treatment show significant expression of other pancreatic progenitor markers, including FOXA2 and HNF6 (FIG. 4a). After ILV treatment, Pdx1, HNF6, Ptfla, Sox9, FOXA2 mRNAs level increase (FIG. 4b).

In the case of (−)-Indolactam V [ILV], the “primary hits (increase both the number and percentage of Pdx1+ cells)” value ([1]; HUES9-derived cells, 10 μM, 1 μM and 0.1 μM, four days) is reported as “hits”, the effective concentration ([1]; HUES9-derived cells, primary screen) is reported as ~1 µM and the “percentage of Pdx1+ cells” value ([1]; HUES9-derived population, 1 μM ILV for 4 days (day 5)) is reported as 10.9±0.9%. For the same substance, the PKC signaling [2] was “activates”, the “phosphorylation of ERK1/2” value [3] was “increased” and the “Pdx1, HNF6, Ptfla, Sox9, FOXA2 mRNAs level” value (HUES8-derived population; 300 nM ILV, 4 days, qRT-PCR) was “increase”. For the same substance, the “endocrine progenitor markers Nkx2.2, Ngn3 and Nkx6.1” value (HUES8-derived population; 300 nM ILV, 4 days, qRT-PCR) was “upregulated” and the “share of Pdx1+ cells with significant expression of FOXA2 and HNF6” value (HUES8-derived population; after ILV treatment, immunocytochemistry) was “More than 96%”.

From patent US9157062B2, “Compositions and methods for promoting the generation of PDX1+ pancreatic cells” (President and Fellows of Harvard College, priority 2008, dated 2015)
